Blank lines part the entries; values can stand above or below the compound they belong to. Activity calls are given as the source filed them.
How the values were obtained:
[1] = HEK-293T viability loss after treatment – luminescence, T-cell screen hits, cytotoxicity control for TCR NF-kB inhibitor project, dose response (AID 489026); assay type: functional, cell-based;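 also: cells exposed to compound about 14 hours before the viability readout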
[2] = reduction of Shn3 3'UTR-driven luciferase in osteoblasts – cell-based, Clone20 osteoblasts, firefly luciferase, cherry-picked, dose response (AID 624132); assay type: functional;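 also: firefly luciferase luminescence from reporter carrying the Shn3 3'UTR in osteoblasts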
[3] = loss of viability in HepG2 cells – cell-based, CellTiter-Glo, cherry-picked, cytotoxicity control for Shn3 inhibitor project, dose response (AID 624134); assay type: functional
[4] = non-specific 3'UTR reporter inhibition in Clone20-Shn3RL – cell-based, Renilla luciferase, cherry-picked, counter-screen for Shn3 inhibitor project, dose response (AID 624133); assay type: functional
[5] = target: T1, Histone-lysine N-methyltransferase NSD2 (Homo sapiens, UniProt O96028); assay type: biochemical
T1 sequence (O96028 whole entry): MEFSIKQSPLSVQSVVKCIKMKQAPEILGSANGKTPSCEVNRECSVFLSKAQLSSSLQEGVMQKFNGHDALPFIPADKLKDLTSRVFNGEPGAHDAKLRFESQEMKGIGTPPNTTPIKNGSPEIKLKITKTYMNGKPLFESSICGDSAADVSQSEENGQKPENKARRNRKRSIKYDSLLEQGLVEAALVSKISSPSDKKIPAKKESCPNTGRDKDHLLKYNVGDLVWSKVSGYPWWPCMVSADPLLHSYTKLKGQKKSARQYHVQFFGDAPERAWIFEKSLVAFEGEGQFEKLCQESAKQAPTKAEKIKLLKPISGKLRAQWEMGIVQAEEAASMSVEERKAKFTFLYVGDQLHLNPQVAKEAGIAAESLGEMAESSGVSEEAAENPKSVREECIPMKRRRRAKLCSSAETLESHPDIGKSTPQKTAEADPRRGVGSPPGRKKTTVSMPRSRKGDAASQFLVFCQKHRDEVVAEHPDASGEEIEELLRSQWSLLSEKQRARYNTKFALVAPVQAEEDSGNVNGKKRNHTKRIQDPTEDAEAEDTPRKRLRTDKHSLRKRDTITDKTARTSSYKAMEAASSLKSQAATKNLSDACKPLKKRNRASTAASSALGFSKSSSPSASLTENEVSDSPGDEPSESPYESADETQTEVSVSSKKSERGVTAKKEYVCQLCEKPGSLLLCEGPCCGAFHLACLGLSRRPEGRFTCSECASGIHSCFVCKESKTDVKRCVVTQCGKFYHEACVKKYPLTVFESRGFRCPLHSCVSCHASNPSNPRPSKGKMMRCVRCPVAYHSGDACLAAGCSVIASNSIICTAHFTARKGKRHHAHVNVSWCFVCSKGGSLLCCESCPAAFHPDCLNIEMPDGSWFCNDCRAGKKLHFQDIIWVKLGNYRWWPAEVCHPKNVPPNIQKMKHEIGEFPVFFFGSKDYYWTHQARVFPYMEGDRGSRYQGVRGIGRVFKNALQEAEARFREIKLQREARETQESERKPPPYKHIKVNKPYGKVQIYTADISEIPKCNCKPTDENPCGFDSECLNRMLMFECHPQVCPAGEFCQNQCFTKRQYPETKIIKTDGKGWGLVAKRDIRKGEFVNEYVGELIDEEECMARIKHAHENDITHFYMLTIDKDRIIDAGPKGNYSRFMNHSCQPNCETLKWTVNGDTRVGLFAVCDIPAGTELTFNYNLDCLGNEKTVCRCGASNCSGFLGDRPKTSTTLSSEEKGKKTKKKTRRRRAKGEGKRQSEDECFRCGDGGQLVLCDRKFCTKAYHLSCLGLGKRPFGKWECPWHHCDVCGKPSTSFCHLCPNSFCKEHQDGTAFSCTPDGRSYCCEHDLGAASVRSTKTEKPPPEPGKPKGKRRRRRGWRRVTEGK

[6] = blockers of HIV-1 envelope-mediated cell-cell fusion – cherry-pick, dose response (AID 652057); assay type: functional, cell-based
[7] = blockers of HIV-1 ZM109 envelope-driven cell-cell fusion – HeLa effector, CEM target cells, luciferase, cherry-pick, dose response (AID 652058); assay type: functional, cell-based;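 also: luciferase signal from HIV-1 Env mediated cell-cell fusion of effector and target cells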
[8] = off-target signal loss in HeLa-CEM21 co-culture – HeLa F-luc CTL cells, cherry-picked, counter-screen for HIV-1 Env fusion inhibitor project, dose response (AID 652040); assay type: functional, cell-based;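 also: potency for signal decrease marking cytotoxic or nonspecific inhibition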
[9] = target: Genome polyprotein (dengue virus type 2, UniProt P29990); assay: flavivirus cap methylation enzyme inhibition – biochemical, confirmation dose response, primary screen (AID 588689); assay type: functional
[10] = target: Induced myeloid leukemia cell differentiation protein Mcl-1 (Homo sapiens, UniProt Q07820); assay type: functional
[11] = target: FAD-linked sulfhydryl oxidase ALR (Homo sapiens, UniProt P55789); assay: ALR-catalysed DTT oxidation blockers – biochemical, H2O2 detection, luminescence, cherry-pick, dose response (AID 493248)
[12] = target: Cytochrome P450 2D6 (Homo sapiens, UniProt P10635);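 also: CYP2D6 member of a cytochrome P450 panel assay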
[13] = Trypanosoma cruzi growth suppression in host cells – NIH3T3 host cells, beta-gal luminescence, confirmation (AID 2044); assay type: functional, cell-based;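 also: intracellular parasites grown in NIH/3T3 mouse fibroblasts as host cells; luminescent beta-galactosidase reporter signal from transgenic T. cruzi replicating inside host cells; inhibitors lower the luminescence signal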
[14] = NIH3T3 cell viability loss – ATP luminescence, mouse fibroblasts, counter-screen, dose response (AID 2010); assay type: functional, cell-based;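 also: cells exposed to compound for about 90 hours before reading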
[15] = system: H9c2; assay: cells; assay type: functional, cell-based; conditions: Rattus norvegicus, H9c2, Myocardium;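 also: confirmatory concentration-response retest of ultra-high-throughput screening hits for modulation of myocardial damage; cell death induced by hydrogen peroxide oxidative stress; compound pretreatment for 60 min then peroxide exposure for 2 h; potency is for protecting the cells against peroxide damage rather than for killing them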
[16] = blockers of bursicon-stimulated LGR2 cAMP reporter – cell-based, HEK293, CRE-luciferase reporter, cherry pick, set 2, dose response (AID 743343); assay type: functional;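 also: transfected cells were stimulated with diluted bursicon conditioned medium after compound addition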
[17] = blockade of melanocortin 4 receptor signaling – cell-based, plate reader, cherry pick, counter-screen for LGR2 antagonist project, dose response (AID 743444); assay type: functional;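 also: transfected HEK 293 cells stimulated with alpha-MSH peptide; potency of inhibitors of the alpha-MSH evoked signal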
[18] = target: Cytochrome P450 2C19 (Homo sapiens, UniProt P33261); assay: Cytochrome panel assay with activity outcomes. Panel member name: p450-cyp2c19 Compounds with AC50 equal or less than 10 uM are considered active; assay type: functional; conditions: read-out: AC50
[19] = target: Cytochrome P450 3A4 (Homo sapiens, UniProt P08684);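 also: CYP3A4 tested as one member of a cytochrome P450 panel screen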
[20] = target: Cytochrome P450 2C9 (Homo sapiens, UniProt P11712)
[21] = HIV-1 AD8 envelope cell-cell fusion blockers – cherry-pick, dose response (AID 652062); assay type: functional, cell-based;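 also: luciferase signal from cell-cell fusion driven by HIV-1 clade B AD8 Env; potency is for inhibitors of fusion seen as a drop in luminescence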
[22] = target: Luciferin 4-monooxygenase (Photinus pyralis, UniProt P08659); assay: inhibition of purified Photinus pyralis luciferase – biochemical, luminescence, dose response (AID 1891)
[23] = Luminescence Cell-Based Dose Confirmation HTS to Identify Inhibitors of Platelet Dense Granule Release. [Related pubchem assays: 1663 (Primary HTS), 1678 (Summary of Project)]; assay type: functional

Chain of Genome polyprotein (P29990 2492-3391 limits assumed): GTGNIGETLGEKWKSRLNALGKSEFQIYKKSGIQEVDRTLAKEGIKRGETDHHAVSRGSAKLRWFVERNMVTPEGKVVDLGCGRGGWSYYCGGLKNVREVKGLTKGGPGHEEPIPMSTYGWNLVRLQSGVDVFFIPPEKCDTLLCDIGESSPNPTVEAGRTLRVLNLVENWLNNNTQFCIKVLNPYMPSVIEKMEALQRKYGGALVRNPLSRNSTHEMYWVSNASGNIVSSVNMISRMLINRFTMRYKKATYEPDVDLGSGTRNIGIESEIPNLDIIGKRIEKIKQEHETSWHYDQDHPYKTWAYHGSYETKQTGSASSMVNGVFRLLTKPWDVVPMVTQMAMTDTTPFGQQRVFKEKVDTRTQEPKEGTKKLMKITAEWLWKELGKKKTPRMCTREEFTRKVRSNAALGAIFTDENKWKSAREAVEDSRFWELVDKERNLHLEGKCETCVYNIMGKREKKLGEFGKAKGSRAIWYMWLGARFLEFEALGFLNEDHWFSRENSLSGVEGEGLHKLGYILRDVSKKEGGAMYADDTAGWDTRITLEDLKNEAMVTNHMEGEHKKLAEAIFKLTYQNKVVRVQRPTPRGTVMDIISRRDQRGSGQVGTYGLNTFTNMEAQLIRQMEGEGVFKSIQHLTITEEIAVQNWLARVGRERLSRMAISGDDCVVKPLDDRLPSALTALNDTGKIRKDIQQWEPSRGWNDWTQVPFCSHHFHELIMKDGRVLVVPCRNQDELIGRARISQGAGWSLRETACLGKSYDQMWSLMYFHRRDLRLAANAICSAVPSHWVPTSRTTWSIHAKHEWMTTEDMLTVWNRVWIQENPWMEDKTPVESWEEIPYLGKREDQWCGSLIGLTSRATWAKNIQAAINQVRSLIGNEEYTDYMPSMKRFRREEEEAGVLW
Chain of Cytochrome P450 2C9 (P11712 whole entry, the tested form may be a part): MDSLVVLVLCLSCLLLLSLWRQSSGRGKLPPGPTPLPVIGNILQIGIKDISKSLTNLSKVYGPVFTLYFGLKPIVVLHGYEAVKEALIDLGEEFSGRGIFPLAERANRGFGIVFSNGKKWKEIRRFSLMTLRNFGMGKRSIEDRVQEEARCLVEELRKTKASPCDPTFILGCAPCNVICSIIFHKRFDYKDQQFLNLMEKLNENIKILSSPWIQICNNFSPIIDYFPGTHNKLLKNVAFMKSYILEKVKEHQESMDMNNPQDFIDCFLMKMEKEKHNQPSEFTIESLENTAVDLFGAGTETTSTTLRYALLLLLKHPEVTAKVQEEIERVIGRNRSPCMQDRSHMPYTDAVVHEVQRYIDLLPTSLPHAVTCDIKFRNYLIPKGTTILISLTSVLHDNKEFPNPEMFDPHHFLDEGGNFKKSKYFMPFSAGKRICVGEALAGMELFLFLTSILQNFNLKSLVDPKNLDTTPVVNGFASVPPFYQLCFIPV
Chain of Induced myeloid leukemia cell differentiation protein Mcl-1 (Q07820 whole entry): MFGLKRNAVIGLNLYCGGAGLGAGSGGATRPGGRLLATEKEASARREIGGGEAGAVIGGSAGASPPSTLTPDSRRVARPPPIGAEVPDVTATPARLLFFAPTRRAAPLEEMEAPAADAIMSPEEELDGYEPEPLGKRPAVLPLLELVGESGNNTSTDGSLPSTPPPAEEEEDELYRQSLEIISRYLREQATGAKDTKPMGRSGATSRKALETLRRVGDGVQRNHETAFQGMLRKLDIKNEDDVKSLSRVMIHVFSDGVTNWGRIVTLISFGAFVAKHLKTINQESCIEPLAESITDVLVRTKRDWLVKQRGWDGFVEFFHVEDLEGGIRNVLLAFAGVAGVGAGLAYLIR
Chain of Cytochrome P450 3A4 (P08684 whole entry): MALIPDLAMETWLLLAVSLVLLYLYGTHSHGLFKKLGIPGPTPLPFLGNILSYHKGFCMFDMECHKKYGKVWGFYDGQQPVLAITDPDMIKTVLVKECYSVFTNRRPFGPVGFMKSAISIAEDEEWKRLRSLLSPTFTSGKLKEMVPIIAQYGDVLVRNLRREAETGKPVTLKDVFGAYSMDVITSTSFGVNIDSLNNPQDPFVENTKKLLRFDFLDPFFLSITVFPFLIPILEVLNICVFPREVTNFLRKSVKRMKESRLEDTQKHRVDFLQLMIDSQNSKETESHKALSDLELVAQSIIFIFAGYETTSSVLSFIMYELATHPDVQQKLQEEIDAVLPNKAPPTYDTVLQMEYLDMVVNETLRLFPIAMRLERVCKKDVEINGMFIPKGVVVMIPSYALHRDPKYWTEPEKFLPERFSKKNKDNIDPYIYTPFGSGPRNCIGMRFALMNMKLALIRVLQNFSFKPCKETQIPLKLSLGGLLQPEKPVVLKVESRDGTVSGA
Chain of Cytochrome P450 2D6 (P10635 whole entry): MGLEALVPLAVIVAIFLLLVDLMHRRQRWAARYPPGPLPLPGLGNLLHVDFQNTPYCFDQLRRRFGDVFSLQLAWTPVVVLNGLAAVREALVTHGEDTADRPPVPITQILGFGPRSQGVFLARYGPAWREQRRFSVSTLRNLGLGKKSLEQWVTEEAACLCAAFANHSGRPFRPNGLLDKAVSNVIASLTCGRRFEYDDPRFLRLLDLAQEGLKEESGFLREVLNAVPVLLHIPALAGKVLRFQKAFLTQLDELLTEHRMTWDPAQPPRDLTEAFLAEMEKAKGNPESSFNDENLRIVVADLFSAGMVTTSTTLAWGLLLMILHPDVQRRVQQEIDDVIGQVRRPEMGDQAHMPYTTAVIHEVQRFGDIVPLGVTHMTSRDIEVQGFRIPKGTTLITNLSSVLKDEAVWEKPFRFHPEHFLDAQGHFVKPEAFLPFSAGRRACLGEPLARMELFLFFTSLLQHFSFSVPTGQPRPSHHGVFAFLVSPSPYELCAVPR
Chain of Luciferin 4-monooxygenase (P08659 whole entry): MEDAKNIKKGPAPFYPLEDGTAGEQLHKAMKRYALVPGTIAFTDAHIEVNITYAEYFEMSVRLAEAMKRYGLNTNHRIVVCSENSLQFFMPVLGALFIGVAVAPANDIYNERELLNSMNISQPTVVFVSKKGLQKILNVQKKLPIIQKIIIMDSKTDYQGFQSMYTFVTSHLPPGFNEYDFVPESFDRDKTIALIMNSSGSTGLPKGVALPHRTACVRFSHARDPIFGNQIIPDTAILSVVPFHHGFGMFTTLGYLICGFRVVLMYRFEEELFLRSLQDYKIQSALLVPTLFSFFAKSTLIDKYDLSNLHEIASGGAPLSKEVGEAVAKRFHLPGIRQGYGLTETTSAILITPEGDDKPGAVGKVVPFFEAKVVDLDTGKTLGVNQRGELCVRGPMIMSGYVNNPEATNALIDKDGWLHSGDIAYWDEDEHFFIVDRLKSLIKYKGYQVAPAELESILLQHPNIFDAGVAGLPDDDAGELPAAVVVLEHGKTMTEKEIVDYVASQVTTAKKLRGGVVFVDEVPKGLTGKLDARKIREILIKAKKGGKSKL
Chain of Cytochrome P450 2C19 (P33261 whole entry): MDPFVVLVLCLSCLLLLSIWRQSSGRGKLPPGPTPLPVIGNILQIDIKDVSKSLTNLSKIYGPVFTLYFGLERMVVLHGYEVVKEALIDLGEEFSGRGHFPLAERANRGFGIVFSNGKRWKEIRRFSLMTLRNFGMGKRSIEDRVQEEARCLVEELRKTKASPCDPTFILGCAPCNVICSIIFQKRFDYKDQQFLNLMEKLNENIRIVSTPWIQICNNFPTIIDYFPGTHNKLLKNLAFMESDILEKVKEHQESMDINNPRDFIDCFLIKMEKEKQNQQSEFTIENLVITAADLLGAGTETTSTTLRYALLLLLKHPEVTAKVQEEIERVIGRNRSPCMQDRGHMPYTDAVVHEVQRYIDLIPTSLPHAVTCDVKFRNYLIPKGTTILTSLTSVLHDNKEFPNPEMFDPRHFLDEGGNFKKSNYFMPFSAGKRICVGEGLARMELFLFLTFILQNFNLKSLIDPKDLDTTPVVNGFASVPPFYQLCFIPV
Chain of FAD-linked sulfhydryl oxidase ALR (P55789 whole entry): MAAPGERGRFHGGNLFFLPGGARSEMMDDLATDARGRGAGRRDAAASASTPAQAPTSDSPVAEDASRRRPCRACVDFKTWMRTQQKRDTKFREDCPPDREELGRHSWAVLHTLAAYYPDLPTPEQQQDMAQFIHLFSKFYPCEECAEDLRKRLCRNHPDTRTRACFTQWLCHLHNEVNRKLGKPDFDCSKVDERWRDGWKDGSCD

SMILES: O=C(Nc1cccc(C(F)(F)F)c1)c1sc(Cl)nc1C(F)(F)F
IC50 [1]: > 80 µM (inactive)
AC50 [2]: 9.06 µM (active)
AC50 [3]: > 70 µM (inactive)
AC50 [4]: 15.8 µM (active)

AC50 [5]: > 20 µM (inactive)
SMILES: CCOC(=O)NCCc1c(C)nc2c(c(C)nn2C(C)(C)C)c1C

SMILES: O=C1c2cccnc2C(Nc2ccc(S(=O)(=O)N3CCCCCC3)cc2)N1Cc1ccccc1 (stereo not drawn)
AC50 [6]: 27.2 µM (active)
AC50 [7]: 30.5 µM (active)
AC50 [8]: 32.2 µM (active)

IC50 [9]: 50 µM (active)
SMILES: CCn1c(SC)nc(=O)c(C(c2ccc(OC)c(O)c2)c2c(O)n(CC)c(SC)nc2=O)c1O

SMILES: COc1ccc(C(=O)Nc2ccc3[nH]c(-c4cccc(OC)c4)cc(=O)c3c2)cc1
IC50 [1]: > 80 µM (inactive)

SMILES: Cc1ccc(NC(=O)CSc2nc(-c3ccco3)cc(C(F)(F)F)n2)cc1C
IC50 [1]: > 80 µM (inactive)

IC50 [10]: 1.14 µM (active)
AC50 [11]: 17.2 µM (active)
AC50 [12]: 28.2 µM (inconclusive)
SMILES: COc1ccc(N2CCC(CNC(=O)Nc3ccc(OC)cc3OC)C2)cc1 (stereo not drawn)

SMILES: COc1ccc(C(=O)Nc2cc(C)nn2-c2nc3ccccc3[nH]2)c(OC)c1
EC50 [13]: 2.51 µM (active)
EC50 [14]: > 60 µM (not active)
IC50 [15]: 7.52 µM (active)

IC50 [10]: 4.36 µM (active)
SMILES: Cc1ccc(-c2ccc(/C=C3/NC(=O)NC3=O)o2)cc1[N+](=O)[O-]

SMILES: Cc1ccc(-c2nc(-c3ccncc3)no2)c(Cl)c1
AC50 [16]: 10.3 µM (active)
AC50 [17]: 12.5 µM (active)

AC50 [18]: 39.8 µM (inconclusive)
AC50 [19]: 14.1 µM (inconclusive)
AC50 [20]: inconclusive
SMILES: O=C(Nc1nc[nH]n1)c1ccc([N+](=O)[O-])cc1[N+](=O)[O-]

SMILES: O=C(O)c1[nH]c2ccccc2c1C(c1cccc(O)c1)c1c(C(=O)O)[nH]c2ccccc12
IC50 [9]: 23.2 µM (active)

SMILES: CCS(=O)(=O)N1Cc2ccccc2CC1C(=O)NC(C)C12CC3CC(CC(C3)C1)C2 (stereo not drawn)
AC50 [6]: 3.24 µM (active)
AC50 [7]: 3.91 µM (active)
AC50 [8]: 4.99 µM (active)
AC50 [21]: 3.56 µM (active)

SMILES: Cc1c(-c2ccccc2)oc2c(C(=O)OCC(=O)Nc3ccc(C(N)=O)cc3)cccc2c1=O
IC50 [15]: > 79 µM (inactive)

SMILES: COc1ccccc1C(=O)NN1C(=O)C2C3C=CC(O3)C2C1=O (stereo not drawn)
EC50 [22]: > 112 µM (not active)
EC50 [23]: > 112 µM (not active)
AC50 [19]: 17.8 µM (inconclusive)
AC50 [20]: inconclusive

From ChEMBL document CHEMBL1201862, “PubChem BioAssay data set” (2004)
